The EC50 is the midpoint of the concentration-response curve.

This passage reports EC50 results from PubChem BioAssay AID1341 (NMMLSC, 2008).

In the assay the target is GTPase HRas (Homo sapiens) (UniProt P01112). The experiment in a line: activated Ras mutant GTP binding inhibitors, dose response, biochemical, multiplex bead flow cytometry (AID 1341).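 Also: GST-tagged constitutively activated Ras mutant immobilized on beads and multiplexed with other GTPases; potency for blocking fluorescent GTP binding to Ras so compounds act as competitors.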 The note with it: bead-based flow cytometry, Bodipy-FL-GTP binding. Background: In flow cytometry, cells or beads pass a laser one at a time.

Several values for one entry are separate records, joined by “and”; a condition that tells them apart may be missing. Identical values can stand only once.

As to `Cc1ccc(C)c(OCCn2cc(C(=O)O)c3ccccc32)c1`, the half-maximal effective concentration (EC50) was 0.195 µM.
In the case of `Cc1cc(C(=O)O)sc1CNCc1ccccc1Cl` it was 0.43 µM; in that of `CC(C)Cc1csc(NC(=O)c2ccccc2Cl)c1C(=O)O`, 0.635 µM; in that of `CC1(C)Cc2c(sc(NC(=S)NC(=O)c3ccccc3)c2C(=O)O)CO1`, 0.144 µM and 0.145 µM.
In the case of `COc1ccc(C(=O)c2c(O)cc(-c3ccc(OC)cc3)oc2=O)cc1` it was 5.96 µM.
In the case of `CC(=O)c1c(C)[nH]c(C(=O)N2CCc3ccccc3C2)c1C` it was 2.46 µM.
For the compound `N#Cc1c(-c2ccccc2)nc(SCC(=O)Nc2ccccc2)[nH]c1=O`, the 50% effective concentration (EC50) was 1.97 µM.
In the case of `Cc1cc(NC(=O)CSc2nc(-c3ccccc3)c(C#N)c(=O)[nH]2)no1` it was 11 µM.
